According to ChEMBL document CHEMBL4002647, “BMS-933043, a Selective α7 nAChR Partial Agonist for the Treatment of Cognitive Deficits Associated with Schizophrenia” (ACS Med Chem Lett, 2017):
The source made the active and inactive calls. The rule behind the calls is not given here.

Assays:
Canis familiaris [1] = organism: Canis familiaris; test: Hepatotoxicity in dog assessed as increase in ALT level; format: toxicity, Canis lupus familiaris; conditions: in vivo
Canis familiaris [2] = organism: Canis familiaris; test: Hepatotoxicity in dog assessed as increase in AST level; format: toxicity, Canis lupus familiaris; conditions: in vivo
[3] = target: T1, Neuronal acetylcholine receptor subunit alpha-7 (Homo sapiens, UniProt P36544); test: Displacement of [125I]alpha-bungarotoxin from human alpha7 nAChR expressed in HEK293 cell membranes incubated for 2 hrs and measured by gamma counting method
T1 sequence (P36544 whole entry): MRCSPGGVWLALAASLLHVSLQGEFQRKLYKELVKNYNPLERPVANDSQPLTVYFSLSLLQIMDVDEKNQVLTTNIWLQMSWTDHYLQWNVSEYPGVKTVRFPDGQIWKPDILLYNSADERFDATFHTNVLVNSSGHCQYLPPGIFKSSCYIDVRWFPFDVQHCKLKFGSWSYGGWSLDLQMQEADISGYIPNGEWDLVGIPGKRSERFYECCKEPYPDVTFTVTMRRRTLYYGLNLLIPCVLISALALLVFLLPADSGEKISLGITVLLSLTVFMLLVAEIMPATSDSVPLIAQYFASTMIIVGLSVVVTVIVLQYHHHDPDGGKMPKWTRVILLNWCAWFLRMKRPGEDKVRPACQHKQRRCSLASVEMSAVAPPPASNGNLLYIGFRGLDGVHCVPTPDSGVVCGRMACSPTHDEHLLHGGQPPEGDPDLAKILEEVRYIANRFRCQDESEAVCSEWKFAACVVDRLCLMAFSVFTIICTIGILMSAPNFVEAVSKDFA

[4] = target: T1, Neuronal acetylcholine receptor subunit alpha-7; test: Agonist activity at human alpha7 nAChR expressed in HEK293 cells co-expressing human RIC3 assessed as induction of peak current amplitutde at 10 uM at holding potential of -90 mV by whole-cell voltage clamp electrophysiology method relative to acetylcholine; format: cell-based
[5] = target: T1, Neuronal acetylcholine receptor subunit alpha-7; test: Agonist activity at human alpha7 nAChR expressed in HEK293 cells co-expressing human RIC3 assessed as area under current curve at 10 uM at holding potential of -90 mV by whole-cell voltage clamp electrophysiology method relative to acetylcholine; format: cell-based
[6] = target: T1, Neuronal acetylcholine receptor subunit alpha-7; test: Agonist activity at human alpha7 nAChR expressed in HEK293 cells co-expressing human RIC3 assessed as area under current curve at holding potential of -90 mV by whole-cell voltage clamp electrophysiology method; format: cell-based
[7] = target: Nicotinic acetylcholine receptor alpha-1/beta-1/delta/epsilon (Rattus norvegicus) (UniProt P25109+P25108+P25110+P09660); test: Antagonist activity at rat alpha1beta1delta1epsilon nAChR expressed in HEK293 cells assessed as inhibition of acetylcholine-induced increase in Ca2+ flux by Fluo-4 AM dye based FLIPR assay; format: cell-based
[8] = Metabolic stability in human liver microsomes assessed as compound remaining at 3 uM after 10 mins by LC-MS/MS analysis; format: ADME, microsome; conditions: read-out: Stability
[9] = Metabolic stability in rat liver microsomes assessed as compound remaining at 3 uM after 10 mins by LC-MS/MS analysis; format: ADME, microsome; conditions: read-out: Stability
[10] = Metabolic stability in dog liver microsomes assessed as compound remaining at 3 uM after 10 mins by LC-MS/MS analysis; format: ADME, Canis lupus familiaris, microsome; conditions: read-out: Stability
[11] = Metabolic stability in monkey liver microsomes assessed as compound remaining at 3 uM after 10 mins by LC-MS/MS analysis; format: ADME, Macaca mulatta, microsome; conditions: rhesus monkey, read-out: Stability
CYP3A4 [12] = target: T2, CYP3A4 (Homo sapiens, UniProt P08684); test: Inhibition of recombinant human CYP3A4 using fluorogenic substrate BFC preincubated for 30 mins and measured after 20 to 60 mins in presence of NADPH regenerating system by fluorescence assay; format: ADME; conditions: human, recombinant CYP3A4, probe BFC
T2 sequence (P08684 whole entry): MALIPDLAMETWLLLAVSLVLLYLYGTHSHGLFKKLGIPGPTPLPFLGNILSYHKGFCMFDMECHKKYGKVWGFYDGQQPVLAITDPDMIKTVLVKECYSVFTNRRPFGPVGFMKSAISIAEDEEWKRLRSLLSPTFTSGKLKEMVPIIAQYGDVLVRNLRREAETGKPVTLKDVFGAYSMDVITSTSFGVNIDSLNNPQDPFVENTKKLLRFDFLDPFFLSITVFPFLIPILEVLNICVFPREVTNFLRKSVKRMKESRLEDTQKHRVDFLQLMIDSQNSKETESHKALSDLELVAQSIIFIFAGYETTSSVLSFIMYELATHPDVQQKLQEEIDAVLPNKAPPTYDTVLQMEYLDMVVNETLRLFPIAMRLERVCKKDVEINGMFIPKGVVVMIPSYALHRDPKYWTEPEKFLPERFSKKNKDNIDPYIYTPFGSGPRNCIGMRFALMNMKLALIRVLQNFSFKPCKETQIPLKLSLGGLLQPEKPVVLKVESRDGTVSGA

CYP3A4 [13] = target: T2, CYP3A4; test: Inhibition of recombinant human CYP3A4 using fluorogenic substrate BZR preincubated for 30 mins and measured after 20 to 60 mins in presence of NADPH regenerating system by fluorescence assay; format: ADME; conditions: human, recombinant CYP3A4, probe BZR
CYP1A2 = CYP1A2 (Homo sapiens, UniProt P05177); test: Inhibition of recombinant human CYP1A2 using fluorogenic substrate preincubated for 30 mins and measured after 20 to 60 mins in presence of NADPH regenerating system by fluorescence assay; format: ADME; conditions: recombinant CYP1A2, probe fluorogenic substrate (not named)
Sequence of CYP1A2 (P05177 whole entry): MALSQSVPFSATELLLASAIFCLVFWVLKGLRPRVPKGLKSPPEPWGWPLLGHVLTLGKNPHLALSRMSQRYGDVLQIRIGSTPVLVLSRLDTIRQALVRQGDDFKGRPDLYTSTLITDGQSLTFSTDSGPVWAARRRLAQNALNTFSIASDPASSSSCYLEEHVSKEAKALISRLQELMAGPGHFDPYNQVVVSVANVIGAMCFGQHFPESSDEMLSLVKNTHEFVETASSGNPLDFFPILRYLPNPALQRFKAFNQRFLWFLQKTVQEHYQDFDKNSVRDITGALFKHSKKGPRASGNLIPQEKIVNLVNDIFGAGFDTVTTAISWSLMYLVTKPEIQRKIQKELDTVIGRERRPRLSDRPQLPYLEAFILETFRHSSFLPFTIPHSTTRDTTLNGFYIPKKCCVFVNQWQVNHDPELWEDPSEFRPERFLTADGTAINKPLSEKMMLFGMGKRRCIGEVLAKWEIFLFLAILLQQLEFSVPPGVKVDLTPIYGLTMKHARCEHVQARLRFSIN

CYP2B6 = CYP2B6 (Homo sapiens, UniProt P20813); test: Inhibition of recombinant human CYP2B6 using fluorogenic substrate preincubated for 30 mins and measured after 20 to 60 mins in presence of NADPH regenerating system by fluorescence assay; format: ADME; conditions: human, recombinant CYP2B6, probe fluorogenic substrate (not named)
Sequence of CYP2B6 (P20813 whole entry): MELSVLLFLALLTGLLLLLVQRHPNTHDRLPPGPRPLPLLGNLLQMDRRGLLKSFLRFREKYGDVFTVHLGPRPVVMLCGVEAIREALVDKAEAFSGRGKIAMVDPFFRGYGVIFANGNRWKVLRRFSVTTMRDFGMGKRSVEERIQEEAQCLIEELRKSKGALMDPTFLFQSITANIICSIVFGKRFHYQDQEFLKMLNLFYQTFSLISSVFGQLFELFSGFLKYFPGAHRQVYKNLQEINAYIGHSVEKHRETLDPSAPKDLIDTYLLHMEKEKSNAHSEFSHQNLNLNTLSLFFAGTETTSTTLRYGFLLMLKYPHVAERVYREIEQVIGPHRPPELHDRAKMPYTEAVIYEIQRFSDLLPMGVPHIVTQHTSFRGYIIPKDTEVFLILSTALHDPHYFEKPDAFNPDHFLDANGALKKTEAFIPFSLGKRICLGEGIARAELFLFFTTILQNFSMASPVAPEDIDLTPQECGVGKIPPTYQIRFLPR

CYP2C8 = CYP2C8 (Homo sapiens, UniProt P10632); test: Inhibition of recombinant human CYP2C8 using fluorogenic substrate preincubated for 30 mins and measured after 20 to 60 mins in presence of NADPH regenerating system by fluorescence assay; format: ADME; conditions: human, recombinant CYP2C8, probe fluorogenic substrate (not named)
Sequence of CYP2C8 (P10632 whole entry): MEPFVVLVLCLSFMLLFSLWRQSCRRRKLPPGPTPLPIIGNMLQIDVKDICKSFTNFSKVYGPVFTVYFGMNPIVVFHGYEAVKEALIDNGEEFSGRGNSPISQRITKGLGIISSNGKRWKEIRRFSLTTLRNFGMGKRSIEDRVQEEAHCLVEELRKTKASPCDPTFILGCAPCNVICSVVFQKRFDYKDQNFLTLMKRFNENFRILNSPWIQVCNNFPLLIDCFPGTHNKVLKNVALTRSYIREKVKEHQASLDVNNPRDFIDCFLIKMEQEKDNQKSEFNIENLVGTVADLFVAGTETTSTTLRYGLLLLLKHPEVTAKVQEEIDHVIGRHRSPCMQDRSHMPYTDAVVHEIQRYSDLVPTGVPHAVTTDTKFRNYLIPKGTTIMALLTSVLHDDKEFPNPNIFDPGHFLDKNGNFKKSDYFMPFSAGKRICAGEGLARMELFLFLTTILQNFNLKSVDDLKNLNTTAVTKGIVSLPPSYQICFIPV

CYP2C9 = CYP2C9 (Homo sapiens, UniProt P11712); test: Inhibition of recombinant human CYP2C9 using fluorogenic substrate preincubated for 30 mins and measured after 20 to 60 mins in presence of NADPH regenerating system by fluorescence assay; format: ADME; conditions: recombinant CYP2C9, probe fluorogenic substrate (not named)
Sequence of CYP2C9 (P11712 whole entry): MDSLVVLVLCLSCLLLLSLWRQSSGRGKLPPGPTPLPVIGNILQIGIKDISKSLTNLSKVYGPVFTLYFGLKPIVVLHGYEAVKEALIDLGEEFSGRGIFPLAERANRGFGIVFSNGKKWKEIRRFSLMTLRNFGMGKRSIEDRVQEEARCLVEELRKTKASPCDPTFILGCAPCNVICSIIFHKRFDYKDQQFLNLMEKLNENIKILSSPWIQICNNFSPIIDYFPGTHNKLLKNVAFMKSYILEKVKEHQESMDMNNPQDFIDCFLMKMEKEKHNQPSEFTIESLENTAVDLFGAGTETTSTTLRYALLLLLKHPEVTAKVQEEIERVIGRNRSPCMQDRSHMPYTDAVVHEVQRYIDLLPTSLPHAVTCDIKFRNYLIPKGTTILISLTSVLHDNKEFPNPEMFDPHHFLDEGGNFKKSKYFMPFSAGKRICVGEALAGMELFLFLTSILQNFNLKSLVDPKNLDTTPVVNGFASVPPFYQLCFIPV

CYP2C19 = CYP2C19 (Homo sapiens, UniProt P33261); test: Inhibition of recombinant human CYP2C19 using fluorogenic substrate preincubated for 30 mins and measured after 20 to 60 mins in presence of NADPH regenerating system by fluorescence assay; format: ADME; conditions: recombinant CYP2C19, probe fluorogenic substrate (not named)
Sequence of CYP2C19 (P33261 whole entry): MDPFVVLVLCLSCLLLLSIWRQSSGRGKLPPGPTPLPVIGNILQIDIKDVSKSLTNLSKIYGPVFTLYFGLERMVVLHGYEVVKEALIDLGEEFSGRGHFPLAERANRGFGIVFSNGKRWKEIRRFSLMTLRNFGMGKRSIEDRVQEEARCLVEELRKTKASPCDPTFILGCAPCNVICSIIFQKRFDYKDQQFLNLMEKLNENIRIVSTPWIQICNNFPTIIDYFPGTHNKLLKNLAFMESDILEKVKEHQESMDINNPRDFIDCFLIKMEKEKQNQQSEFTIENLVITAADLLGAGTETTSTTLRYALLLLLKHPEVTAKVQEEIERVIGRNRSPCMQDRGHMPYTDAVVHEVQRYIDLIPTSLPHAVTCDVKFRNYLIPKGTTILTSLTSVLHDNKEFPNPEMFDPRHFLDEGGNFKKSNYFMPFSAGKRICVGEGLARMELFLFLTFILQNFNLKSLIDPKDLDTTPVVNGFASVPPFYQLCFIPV

CYP2D6 = CYP2D6 (Homo sapiens, UniProt P10635); test: Inhibition of recombinant human CYP2D6 using fluorogenic substrate preincubated for 30 mins and measured after 20 to 60 mins in presence of NADPH regenerating system by fluorescence assay; format: ADME; conditions: human, recombinant CYP2D6, probe fluorogenic substrate (not named)
Sequence of CYP2D6 (P10635 whole entry): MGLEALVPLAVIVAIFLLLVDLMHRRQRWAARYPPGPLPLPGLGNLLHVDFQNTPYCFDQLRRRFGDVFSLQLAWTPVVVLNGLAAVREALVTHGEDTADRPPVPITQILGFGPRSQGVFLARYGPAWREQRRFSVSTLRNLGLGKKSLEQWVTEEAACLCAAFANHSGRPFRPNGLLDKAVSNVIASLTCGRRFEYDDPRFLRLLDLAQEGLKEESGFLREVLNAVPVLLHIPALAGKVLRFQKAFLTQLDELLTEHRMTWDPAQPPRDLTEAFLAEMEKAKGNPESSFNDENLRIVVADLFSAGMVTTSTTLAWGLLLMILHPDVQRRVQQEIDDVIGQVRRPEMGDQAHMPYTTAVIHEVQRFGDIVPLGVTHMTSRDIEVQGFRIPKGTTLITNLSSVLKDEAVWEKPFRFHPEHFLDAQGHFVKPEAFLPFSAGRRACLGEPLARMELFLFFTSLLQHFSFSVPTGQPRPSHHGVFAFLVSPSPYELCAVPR

[14] = Fraction unbound in human plasma at 10 uM after 4 hrs by equilibrium dialysis method; format: ADME, cell-free
[15] = Fraction unbound in rat plasma at 10 uM after 4 hrs by equilibrium dialysis method; format: ADME, cell-free
[16] = Fraction unbound in mouse plasma at 10 uM after 4 hrs by equilibrium dialysis method; format: ADME, cell-free
[17] = Fraction unbound in dog plasma at 10 uM after 4 hrs by equilibrium dialysis method; format: ADME, cell-free, Canis lupus familiaris
[18] = Fraction unbound in monkey plasma at 10 uM after 4 hrs by equilibrium dialysis method; format: ADME, cell-free, Macaca mulatta; conditions: rhesus monkey
Canis familiaris [19] = organism: Canis familiaris; test: Hepatotoxicity in dog assessed as increase in alkaline phosphatase level; format: toxicity, Canis lupus familiaris; conditions: in vivo
Canis familiaris [20] = organism: Canis familiaris; test: Cardiotoxicity in dog assessed as QT prolongation; format: toxicity, Canis lupus familiaris
[21] = target: Neuronal acetylcholine receptor; alpha3/beta4 (Rattus norvegicus) (UniProt P04757+P12392); test: Antagonist activity at rat alpha3beta4 nAChR expressed in HEK293 cells assessed as inhibition of acetylcholine-induced increase in Ca2+ flux by Fluo-4 AM dye based FLIPR assay; format: cell-based
[22] = target: Neuronal acetylcholine receptor; alpha4/beta2 (Rattus norvegicus) (UniProt P09483+P12390); test: Antagonist activity at rat alpha4beta2 nAChR expressed in HEK293 cells assessed as inhibition of acetylcholine-induced increase in Ca2+ flux by Fluo-4 AM dye based FLIPR assay; format: cell-based
[23] = Metabolic stability in mouse liver microsomes assessed as compound remaining at 3 uM after 10 mins by LC-MS/MS analysis; format: ADME, microsome; conditions: read-out: Stability
Canis familiaris [24] = organism: Canis familiaris; test: […] in dog assessed as increase in AST level; format: toxicity, Canis lupus familiaris; conditions: in vivo
Canis familiaris [25] = organism: Canis familiaris; test: […] in dog assessed as increase in ALT level; format: toxicity, Canis lupus familiaris; conditions: in vivo
Canis familiaris [26] = organism: Canis familiaris; test: […] in dog assessed as increase in alkaline phosphatase level; format: toxicity, Canis lupus familiaris; conditions: in vivo

For `c1ccc2cc(NC3=NC[C@@]4(CN5CCC4CC5)O3)ncc2c1`, the Activity (Canis familiaris [1]) was “Toxic”, the Activity (Canis familiaris [2]) was “Toxic” and the Ki [3] was 0.0013 µM. The %max [4] was 26%, the %max [5] was 62% and the EC50 [6] was 0.24 µM. For the same molecule, the inhibition [7] was “inactive”, the remaining at 10 min, 3 µM [8] was 96% and the remaining at 10 min, 3 µM [9] was 1%. It also gave a remaining at 10 min, 3 µM [10] of 74%, a remaining at 10 min, 3 µM [11] of 78% and an IC50 (CYP3A4 [12]) of over 40 µM. The IC50 (CYP3A4 [13]) was over 40 µM, the IC50 (CYP1A2) was over 40 µM and the IC50 (CYP2B6) was over 40 µM. For the same molecule, the IC50 (CYP2C8) was over 40 µM, the IC50 (CYP2C9) was over 40 µM and the IC50 (CYP2C19) was over 40 µM. It also gave an IC50 (CYP2D6) of over 40 µM, a fraction unbound at 4 h, 10 µM [14] of 0.25 and a fraction unbound at 4 h, 10 µM [15] of 0.27. The fraction unbound at 4 h, 10 µM [16] was 0.23, the fraction unbound at 4 h, 10 µM [17] was 0.44 and the fraction unbound at 4 h, 10 µM [18] was 0.35. The Activity (Canis familiaris [19]) was “Toxic”, the Activity (Canis familiaris [20]) was “Toxic” and the inhibition [21] was “inactive”. For the same molecule, the inhibition [22] was “inactive”, the remaining at 10 min, 3 µM [23] was 89% and the Activity (Canis familiaris [24]) was “Toxic”. For the same molecule, the Activity (Canis familiaris [25]) was “Toxic” and the Activity (Canis familiaris [26]) was “Toxic”.
